Patent US20240116945A1, “EXATECAN-DERIVED TOPOISOMERASE-1 INHIBITORS PHARMACEUTICAL COMPOSITIONS, AND USES THEREOF” (Merck Sharp & Dohme LLC, priority 2022, published 2024)
Where a name gives a salt, the structure may show the parent alone.

Each molecule was assayed on Jeko-1 cells (assay: CellTiter-Glo 2.0 Cytotoxicity Assay). Conditions: Homo sapiens, JeKo-1, read-out: Jeko-1 EC50 (nM), Jeko-1 cells, 3000 cells/well; compounds added Day 1; CellTiter-Glo 2.0 luminescence read on Day 4 or 5.
Assay type: cell-based
Method: Reaction progress and synthetic intermediate analysis were assessed by LCMS (UV detection with ESI, APCI, or other mass detection) when applicable using a MeCN/water gradient with either TFA, formic acid, or NH4HCO3 modifier. Silica gel and reverse-phase flash column chromatography were conducted with commercially available pre-packed columns. Reverse-phase preparative HPLC purification was performed on preparative HPLC instruments with UV and MS detection using a MeCN/water gradient with either TFA, formic acid, or NH4OH modifier. ^1H NMR spectra were collected at room temperature, and chemical shifts are reported in ppm relative to the residual proteo-solvent signals, and multiplicities, coupling constants (where applicable), and signal integrations are listed parenthetically. Unless otherwise noted, all EC50 data presented in tables refers to the CellTiter-Glo® 2.0 Cytotoxicity Assay that is described in the Biological Assay section.
CellTiter-Glo® 2.0 Cytotoxicity Assay
Step 1: Seed 384-Well Plates for Assay (45 μL Per Well) on Day 0
Jeko-1 cells were quickly thawed in a cryo-vial by incubating them in a 37° C. water bath for <1 min until there is just a small bit of ice left in the vial. The vial was promptly removed and wiped down with 70% ethanol. The cells were transferred from the vial to a sterile centrifuge tube containing 8 mL of pre-warmed cell culture medium. The vial was flushed with an additional 1 mL of medium to ensure complete transfer of cells to the centrifuge tube. The cells were then centrifuged at 150×g for 5 minutes. The supernatant was aspirated, and the cell pellet was resuspended in 10-20 mL cell culture medium. Cells were counted using Vi-cell and prepared 6.6×10^4 cells/ml, 3000 cells/45 μL per well. Then added 45 μL/well of cells into Corning® 384-well Low Flange White Flat Bottom Polystyrene TC-treated Microplates (Corning, Cat #3570) using Standard Cassette Combi (if needed, dispense 1 dummy plate at 20 μL to help normalize Combi, using medium speed). The plates were spun down at 150×g for 30 seconds.
Step 2: Add Compounds on Day 1
The compound plates and reference compound stock were taken out and allowed to thaw at RT. The tubes were centrifuged at 2000×g for 30 seconds. The 10× Intermediate assay plates (Greiner plate, Cat #781280) were prepared using an Echo liquid handler. Proper buffer (HBSS (Gibco, Cat #14025-092)+10 mM HEPES (Gibco, Cat #15630-080)+0.1% BSA (Sigma, Cat #A9576)) were used to make serial dilutions. Media (no cells) was used for Max_E. Compound (5 μL of 10×) was transferred from intermediate plate to assay plate using a Bravo liquid handler using a very slow speed so the cell monolayer wasn't disturbed. The plates were spun down at 150×g for 30 seconds.
Step 3: CellTiter-Glo 2.0 Assay (Promega, Cat #G9242) on Day 4 or 5 (CellTiter-Glo Kit Stored at −70° C.)
The CellTiter-Glo® 2.0 Reagent was thawed at 4° C. overnight, taking care not to expose the reagent to temperatures above 25° C.). The kit was equilibrated to RT for approximately 30 minutes. CellTiter-Glo® 2.0 Reagent (20 μl) was added to 50 μl of medium containing cells using Standard Cassette Combi. The contents were mixed for 2-3 minutes on an orbital shaker to induce cell lysis. The plates were spun down at 150×g for 30 seconds. The plates were allowed to incubate at RT for 5 minutes to stabilize the luminescent signal.
Illustrative compounds of the present disclosure were tested in the above assay in Example 15, and results are provided in the Table 9 below: […]

Question: For `CC[C@@]1(O)C(=O)OCc2c1cc1n(c2=O)Cc2c-1nc1cc(F)c(C)c3c1c2[C@@H](NC(=O)[C@H](O)CO)CC3` [Compound 29], which EC50 is on record?
Answer: Its EC50 is 3.7 nM.

Question: `CC[C@@]1(O)C(=O)OCc2c1cc1n(c2=O)Cc2c-1nc1cc(F)c(C)c3c1c2[C@@H](NC(=O)C(O)C1(CO)CC1)CC3` (stereo partly drawn) [Compound 30, N-((1S,9S)-9-ethyl-5-fluoro-9-hydroxy-4-methyl-10,13-dioxo-2,3,9,10,13,15-hexahydro-1H,12H-benzo[de]pyrano[3′,4′: 6,7]indolizino[1,2-b]quinolin-1-yl)-2-hydroxy-2-(1-(hydroxymethyl)cyclopropyl)acetamide] was tested. Which EC50 did it give?
Answer: The EC50 was 2.5 nM.

Question: For `CC[C@@]1(O)C(=O)OCc2c1cc1n(c2=O)Cc2c-1nc1cc(F)c(C)c3c1c2[C@@H](NC(=O)[C@@H](CCO)OC)CC3` [Compound 31, (R)—N-((1S,9S)-9-ethyl-5-fluoro-9-hydroxy-4-methyl-10,13-dioxo-2,3,9,10,13,15-hexahydro-1H,12H-benzo[de]pyrano[3′,4′: 6,7]indolizino[1,2-b]quinolin-1-yl)-4-hydroxy-2-methoxybutanamide], which EC50 is on record?
Answer: The EC50 was 4.1 nM.

Question: With `CC[C@@]1(O)C(=O)OCc2c1cc1n(c2=O)Cc2c-1nc1cc(F)c(C)c3c1c2[C@@H](NC(=O)[C@@H](C)CO)CC3` [Compound 32, (S)—N-((1S,9S)-9-ethyl-5-fluoro-9-hydroxy-4-methyl-10,13-dioxo-2,3,9,10,13,15-hexahydro-1H,12H-benzo[de]pyrano[3′,4′: 6,7]indolizino[1,2-b]quinolin-1-yl)-3-hydroxy-2-methylpropanamide] as the molecule, how does the EC50 read?
Answer: Its EC50 is 1.4 nM.

Question: Which EC50 does the source give for `CC[C@@]1(O)C(=O)OCc2c1cc1n(c2=O)Cc2c-1nc1cc(F)c(C)c3c1c2[C@@H](NC(=O)[C@H](C)CO)CC3` [Compound 33] here?
Answer: The EC50 was 3.8 nM.

Question: For `CC[C@@]1(O)C(=O)OCc2c1cc1n(c2=O)Cc2c-1nc1cc(F)c(C)c3c1c2[C@@H](NC(=O)C(C)(C)CCO)CC3` [Compound 38, N-((1S,9S)-9-ethyl-5-fluoro-9-hydroxy-4-methyl-10,13-dioxo-2,3,9,10,13,15-hexahydro-1H,12H-benzo[de]pyrano[3′,4′: 6,7]indolizino[1,2-b]quinolin-1-yl)-4-hydroxy-2,2-dimethylbutanamide], which EC50 is on record?
Answer: Its EC50 is 4.6 nM.

Question: Which EC50 does the source give for `CC[C@@]1(O)C(=O)OCc2c1cc1n(c2=O)Cc2c-1nc1cc(F)c(C)c3c1c2[C@@H](NC(=O)C(C)(C)N)CC3` [Compound 41, 2-amino-N-((1S,9S)-9-ethyl-5-fluoro-9-hydroxy-4-methyl-10,13-dioxo-2,3,9,10,13,15-hexahydro-1H,12H-benzo[de]pyrano[3′,4′: 6,7]indolizino[1,2-b]quinolin-1-yl)-2-methylpropanamide formate] here?
Answer: Its EC50 is 2.3 nM.

Question: For `CC[C@@]1(O)C(=O)OCc2c1cc1n(c2=O)Cc2c-1nc1cc(F)c(C)c3c1c2[C@@H](NC(=O)C(N)CC(C)C)CC3` (stereo partly drawn) [Compound 42], which EC50 is on record?
Answer: Its EC50 is 5.5 nM.

Question: `CC[C@@]1(O)C(=O)OCc2c1cc1n(c2=O)Cc2c-1nc1cc(F)c(C)c3c1c2[C@@H](NC(=O)[C@H](O)CN)CC3` [Compound 43] was tested. Which EC50 did it give?
Answer: The EC50 was 27 nM.

Question: `CC[C@@]1(O)C(=O)OCc2c1cc1n(c2=O)Cc2c-1nc1cc(F)c(C)c3c1c2[C@@H](NC(=O)[C@@H](O)CN)CC3` [Compound 44] was tested. Which EC50 did it give?
Answer: Its EC50 is 78 nM.

Question: Which EC50 does the source give for `CC[C@@]1(O)C(=O)OCc2c1cc1n(c2=O)Cc2c-1nc1cc(F)c(C)c3c1c2[C@@H](NC(=O)[C@@H](N)CO)CC3` [Compound 45, (S)-2-amino-N-((1S,9S)-9-ethyl-5-fluoro-9-hydroxy-4-methyl-10,13-dioxo-2,3,9,10,13,15-hexahydro-1H,12H-benzo[de]pyrano[3′,4′: 6,7]indolizino[1,2-b]quinolin-1-yl)-3-hydroxypropanamide formate] here?
Answer: Its EC50 is 27 nM.

Question: How did the EC50 turn out when `CC[C@@]1(O)C(=O)OCc2c1cc1n(c2=O)Cc2c-1nc1cc(F)c(C)c3c1c2[C@@H](NC(=O)[C@H](N)CO)CC3` [Compound 46] was run?
Answer: The EC50 was 5 nM.

Question: For `CC[C@@]1(O)C(=O)OCc2c1cc1n(c2=O)Cc2c-1nc1cc(F)c(C)c3c1c2[C@@H](NC(=O)C(C)(NC(=O)[C@@H](C)N)C(F)F)CC3` (stereo partly drawn) [Compound 47], which EC50 is on record?
Answer: Its EC50 is 22 nM.

Question: With `CC[C@@]1(O)C(=O)OCc2c1cc1n(c2=O)Cc2c-1nc1cc(F)c(C)c3c1c2[C@@H](NC(=O)C(C)(N)COC)CC3` (stereo partly drawn) [Compound 48] as the molecule, how does the EC50 read?
Answer: Its EC50 is 8.7 nM.

Question: For `CC[C@@]1(O)C(=O)OCc2c1cc1n(c2=O)Cc2c-1nc1cc(F)c(C)c3c1c2[C@@H](NC(=O)C(F)(F)CCN)CC3` [Compound 49, 4-amino-N-((1S,9S)-9-ethyl-5-fluoro-9-hydroxy-4-methyl-10,13-dioxo-2,3,9,10,13,15-hexahydro-1H,12H-benzo[de]pyrano[3′,4′: 6,7]indolizino[1,2-b]quinolin-1-yl)-2,2-difluorobutanamide], which EC50 is on record?
Answer: Its EC50 is 14 nM.

Question: With `CC[C@@]1(O)C(=O)OCc2c1cc1n(c2=O)Cc2c-1nc1cc(F)c(C)c3c1c2[C@@H](NC(=O)[C@@H](N)CN)CC3` [Compound 50, (S)-2,3-diamino-N-((1S,9S)-9-ethyl-5-fluoro-9-hydroxy-4-methyl-10,13-dioxo-2,3,9,10,13,15-hexahydro-1H,12H-benzo[de]pyrano[3′,4′: 6,7]indolizino[1,2-b]quinolin-1-yl)propanamide formate] as the molecule, how does the EC50 read?
Answer: The EC50 was 90 nM.

Question: `CC[C@@]1(O)C(=O)OCc2c1cc1n(c2=O)Cc2c-1nc1cc(F)c(C)c3c1c2[C@@H](NCCCO)CC3` [Compound 52] was tested. Which EC50 did it give?
Answer: Its EC50 is 5.1 nM.

Question: With `CC[C@@]1(O)C(=O)OCc2c1cc1n(c2=O)Cc2c-1nc1cc(F)c(C)c3c1c2[C@@H](NCC(=O)NC(C)C)CC3` [Compound 55] as the molecule, how does the EC50 read?
Answer: The EC50 was 8.8 nM.

Question: Which EC50 does the source give for `CC[C@@]1(O)C(=O)OCc2c1cc1n(c2=O)Cc2c-1nc1cc(F)c(C)c3c1c2[C@@H](NCc1ccccc1CO)CC3` [Compound 56] here?
Answer: The EC50 was 5.5 nM.

Question: Which EC50 does the source give for `CC[C@@]1(O)C(=O)OCc2c1cc1n(c2=O)Cc2c-1nc1cc(F)c(C)c3c1c2[C@@H](NCC(C)(F)F)CC3` [Compound 57] here?
Answer: Its EC50 is 6.2 nM.

Question: How did the EC50 turn out when `CC[C@@]1(O)C(=O)OCc2c1cc1n(c2=O)Cc2c-1nc1cc(F)c(C)c3c1c2[C@@H](NCC(F)(F)C(F)F)CC3` [Compound 58] was run?
Answer: Its EC50 is 6.2 nM.

Question: With `CC[C@@]1(O)C(=O)OCc2c1cc1n(c2=O)Cc2c-1nc1cc(F)c(C)c3c1c2[C@@H](NC(C)C(F)F)CC3` (stereo partly drawn) [Compound 59] as the molecule, how does the EC50 read?
Answer: The EC50 was 5.4 nM.

Question: Which EC50 does the source give for `CC[C@@]1(O)C(=O)OCc2c1cc1n(c2=O)Cc2c-1nc1cc(F)c(C)c3c1c2[C@@H](N(C)CC(F)F)CC3` [Compound 60, (1S,9S)-1-((2,2-difluoroethyl)(methyl)amino)-9-ethyl-5-fluoro-9-hydroxy-4-methyl-1,2,3,9,12,15-hexahydro-10H,13H-benzo[de]pyrano[3′,4′: 6,7]indolizino[1,2-b]quinoline-10,13-dione] here?
Answer: The EC50 was 9.6 nM.

Same assay, conditions: Homo sapiens; Jeko-1 cells, 3000 cells/well; compounds added Day 1; CellTiter-Glo 2.0 luminescence read on Day 4 or 5; read-out: Jeko-1 EC50

Question: For `CC[C@@]1(O)C(=O)OCc2c1cc1n(c2=O)Cc2c-1nc1cc(F)c(C)c3c1c2[C@@H](NCCO)CC3` [Compound 51, (1S,9S)-9-ethyl-5-fluoro-9-hydroxy-1-((2-hydroxyethyl)amino)-4-methyl-1,2,3,9,12,15-hexahydro-10H,13H-benzo[de]pyrano[3′,4′: 6,7]indolizino[1,2-b]quinoline-10,13-dione formate], which EC50 is on record?
Answer: Its EC50 is 3.7 nM.
